Experimental data reported in patent US20080009418A1, “Selective Inhibitors” (Alchemia LTD., priority 2004, published 2008).

What was measured:
Human δ-opioid (DOP) = target: T1, Human δ-opioid (DOP) (Homo sapiens, UniProt P41143); assay: Radioligand binding, human δ-opioid (DOP) membranes, FlashPlate, [3H]-Bremazocine; details: compound at 10 μM; for A1 radioligand binding inhibition: human δ-opioid (DOP) membranes
T1 construct: purchased Perkin Elmer Biosignal
Method in brief: (§1)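 Cloned human receptor membranes were coated onto FlashPlate wells and incubated with radioligand and compound (added from a 0.5 mM DMSO daughter plate) for 1 hour at room temperature in the dark. Scintillation counting gave percent inhibition, with DMSO defining total and reference ligand defining non-specific binding.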

Human κ-Opioid (KOP) = target: T2, Human κ-Opioid (KOP) (Homo sapiens, UniProt P41145); assay: Radioligand binding, human κ-opioid (KOP) membranes, filtration, [3H]-Diprenorphine; details: compound at 10 μM; for A2 radioligand binding inhibition: human κ-opioid (KOP) membranes
T2 construct: purchased Perkin Elmer Biosignal
T2 sequence (P41145 whole entry): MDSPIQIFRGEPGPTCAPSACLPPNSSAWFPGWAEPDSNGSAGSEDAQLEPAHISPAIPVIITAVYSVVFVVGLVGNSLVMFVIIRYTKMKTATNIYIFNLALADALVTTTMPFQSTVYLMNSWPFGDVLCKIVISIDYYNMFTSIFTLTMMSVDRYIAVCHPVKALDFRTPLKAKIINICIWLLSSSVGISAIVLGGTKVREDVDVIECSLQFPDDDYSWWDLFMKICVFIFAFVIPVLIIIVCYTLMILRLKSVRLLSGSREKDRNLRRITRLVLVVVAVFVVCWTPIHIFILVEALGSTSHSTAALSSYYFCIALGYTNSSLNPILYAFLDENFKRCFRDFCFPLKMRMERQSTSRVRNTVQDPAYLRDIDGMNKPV
Method in brief: (§2)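 Percent inhibition of radioligand binding measured on recombinant human membranes: NK1 with [125I]-Substance P, KOP with [3H]-Diprenorphine. Incubation 1 h at room temperature, then harvest onto 0.3% PEI-soaked filters, cold Tris-HCl pH 7.4 washes and scintillation counting; non-specific binding from reference ligand wells.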

Human Melanocortin (MC3) = target: T3, Human Melanocortin (MC3) (Homo sapiens, UniProt P41968); assay: Radioligand binding, human melanocortin MC3 membranes, FlashPlate, [125I]-NDP-αMSH; details: compound at 10 μM; for A3 radioligand binding inhibition: human melanocortin MC3 membranes
T3 construct: purchased Perkin Elmer Biosignal
T3 sequence (P41968 whole entry): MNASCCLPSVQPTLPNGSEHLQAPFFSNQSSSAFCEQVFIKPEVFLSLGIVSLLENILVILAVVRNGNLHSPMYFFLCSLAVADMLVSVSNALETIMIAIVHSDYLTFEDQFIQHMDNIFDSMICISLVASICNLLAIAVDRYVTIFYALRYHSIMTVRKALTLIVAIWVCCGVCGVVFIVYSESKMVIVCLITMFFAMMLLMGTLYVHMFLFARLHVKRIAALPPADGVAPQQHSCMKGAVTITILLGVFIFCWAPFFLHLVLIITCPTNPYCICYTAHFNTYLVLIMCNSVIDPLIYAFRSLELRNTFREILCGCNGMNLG
Method in brief: as §1

Human Melanocortin (MC4) = target: T4, Human Melanocortin (MC4) (Homo sapiens, UniProt P32245); assay: Radioligand binding, human melanocortin MC4 membranes, FlashPlate, [125I]-NDP-αMSH; details: compound at 10 μM; for A4 radioligand binding inhibition: human melanocortin MC4 membranes
T4 construct: purchased Perkin Elmer Biosignal
T4 sequence (P32245 whole entry): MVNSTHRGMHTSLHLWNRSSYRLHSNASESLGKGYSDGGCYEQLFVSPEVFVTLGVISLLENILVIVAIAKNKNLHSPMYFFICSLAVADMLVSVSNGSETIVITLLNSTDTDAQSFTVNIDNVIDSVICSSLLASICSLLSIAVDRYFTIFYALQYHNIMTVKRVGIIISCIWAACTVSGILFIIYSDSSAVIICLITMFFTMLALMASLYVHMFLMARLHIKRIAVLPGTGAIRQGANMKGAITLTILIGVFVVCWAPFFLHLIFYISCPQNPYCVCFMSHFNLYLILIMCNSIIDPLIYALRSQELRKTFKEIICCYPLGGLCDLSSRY
Method in brief: as §1

Human melanocortin (MC5) = target: T5, Human melanocortin (MC5) (Homo sapiens, UniProt P33032); assay: Radioligand binding, human melanocortin MC5 membranes, FlashPlate, [125I]-NDP-αMSH; details: compound at 10 μM; for A5 radioligand binding inhibition: human melanocortin MC5 membranes
T5 construct: purchased Perkin Elmer Biosignal
T5 sequence (P33032 whole entry): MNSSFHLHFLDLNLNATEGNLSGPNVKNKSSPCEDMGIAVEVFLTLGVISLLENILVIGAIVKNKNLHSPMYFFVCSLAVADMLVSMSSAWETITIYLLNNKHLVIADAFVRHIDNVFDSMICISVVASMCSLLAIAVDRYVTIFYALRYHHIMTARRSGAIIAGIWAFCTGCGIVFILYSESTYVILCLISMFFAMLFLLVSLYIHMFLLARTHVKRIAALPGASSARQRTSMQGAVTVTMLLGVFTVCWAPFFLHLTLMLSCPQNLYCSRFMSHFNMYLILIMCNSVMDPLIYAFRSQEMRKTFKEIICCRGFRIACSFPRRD
Method in brief: as §1

[1] = target: T6, Human melanin-concentrating hormone (MCH1) (Homo sapiens, UniProt Q99705); assay: Radioligand binding, human melanin-concentrating hormone MCH1 membranes, FlashPlate, [125I]-S36057; details: compound at 10 μM; for A6 radioligand binding inhibition: human MCH1 membranes
T6 construct: purchased Perkin Elmer Biosignal
T6 sequence (Q99705 whole entry): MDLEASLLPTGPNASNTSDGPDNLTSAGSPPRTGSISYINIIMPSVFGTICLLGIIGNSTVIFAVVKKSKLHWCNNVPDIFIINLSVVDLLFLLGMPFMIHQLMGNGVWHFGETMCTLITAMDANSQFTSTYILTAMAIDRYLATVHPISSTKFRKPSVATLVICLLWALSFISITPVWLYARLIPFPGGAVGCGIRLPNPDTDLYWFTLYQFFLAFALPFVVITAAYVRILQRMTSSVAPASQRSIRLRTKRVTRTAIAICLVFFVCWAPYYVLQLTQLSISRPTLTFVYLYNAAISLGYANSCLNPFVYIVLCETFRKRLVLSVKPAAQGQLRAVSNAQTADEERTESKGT
Method in brief: as §1

Human μ-opioid (MOP) = target: T7, Human μ-opioid (MOP) (Homo sapiens, UniProt P35372); assay: Radioligand binding, human μ-opioid (MOP) membranes, FlashPlate, [3H]-Naloxone; details: compound at 10 μM; for A7 radioligand binding inhibition: human μ-opioid (MOP) membranes
T7 construct: purchased Perkin Elmer Biosignal
T7 sequence (P35372 whole entry): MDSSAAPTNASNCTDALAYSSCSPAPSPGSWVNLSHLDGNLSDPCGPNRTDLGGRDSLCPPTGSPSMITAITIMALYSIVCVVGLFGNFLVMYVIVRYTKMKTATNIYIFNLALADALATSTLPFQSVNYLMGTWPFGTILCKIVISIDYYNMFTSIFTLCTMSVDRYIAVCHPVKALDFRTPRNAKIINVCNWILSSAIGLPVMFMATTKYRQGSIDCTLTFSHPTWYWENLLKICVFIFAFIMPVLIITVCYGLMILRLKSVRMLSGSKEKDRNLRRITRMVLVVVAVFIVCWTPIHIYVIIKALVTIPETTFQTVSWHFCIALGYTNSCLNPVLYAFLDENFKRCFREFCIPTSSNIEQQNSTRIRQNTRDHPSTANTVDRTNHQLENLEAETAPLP
Method in brief: as §1

Human neurokinin (NK1) = target: T8, Human neurokinin (NK1) (Homo sapiens, UniProt P25103); assay: Radioligand binding, human neurokinin NK1 membranes, filtration, [125I]-Substance P; details: compound at 10 μM; for A8 radioligand binding inhibition: human neurokinin NK1 membranes
T8 construct: purchased Perkin Elmer Biosignal
T8 sequence (P25103 whole entry): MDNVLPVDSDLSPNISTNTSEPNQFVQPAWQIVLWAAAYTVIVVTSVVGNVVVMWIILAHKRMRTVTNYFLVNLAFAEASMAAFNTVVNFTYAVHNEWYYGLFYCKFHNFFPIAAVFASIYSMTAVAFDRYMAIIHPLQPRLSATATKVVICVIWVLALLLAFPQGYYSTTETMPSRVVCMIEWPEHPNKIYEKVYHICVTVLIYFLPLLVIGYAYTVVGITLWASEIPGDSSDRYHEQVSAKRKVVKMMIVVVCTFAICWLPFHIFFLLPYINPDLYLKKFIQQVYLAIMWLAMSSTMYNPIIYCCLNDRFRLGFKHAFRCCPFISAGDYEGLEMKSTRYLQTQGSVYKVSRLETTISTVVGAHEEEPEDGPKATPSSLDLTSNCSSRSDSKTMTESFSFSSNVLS
Method in brief: as §2

[2] = target: T9, Human neuropeptide Y (NPY-Y1) (Homo sapiens, UniProt P25929); assay: Radioligand binding, human neuropeptide Y NPY-Y1 membranes, FlashPlate, [125I]-PYY; details: compound at 10 μM, human NPY-Y1 membranes
T9 construct: purchased Perkin Elmer Biosignal
T9 sequence (P25929 1-384): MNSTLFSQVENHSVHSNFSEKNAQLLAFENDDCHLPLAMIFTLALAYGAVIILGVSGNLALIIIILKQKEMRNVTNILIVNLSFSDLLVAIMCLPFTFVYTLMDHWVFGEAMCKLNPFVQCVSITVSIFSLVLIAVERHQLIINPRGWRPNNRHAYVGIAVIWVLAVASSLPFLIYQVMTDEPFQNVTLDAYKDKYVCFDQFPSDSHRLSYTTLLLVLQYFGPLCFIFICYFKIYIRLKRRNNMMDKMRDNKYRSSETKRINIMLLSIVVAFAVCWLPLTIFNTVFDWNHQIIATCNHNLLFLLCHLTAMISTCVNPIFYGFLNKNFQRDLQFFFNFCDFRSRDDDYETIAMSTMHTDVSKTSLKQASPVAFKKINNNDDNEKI
Method in brief: as §1

Human opioid (ORL1) = target: T10, Human opioid (ORL1) (Homo sapiens, UniProt P41146); assay: Radioligand binding, human opioid ORL1 membranes, FlashPlate, [125I]-Nociceptin; details: compound at 10 μM, human ORL1 membranes
T10 construct: purchased Perkin Elmer Biosignal
T10 sequence (P41146 whole entry): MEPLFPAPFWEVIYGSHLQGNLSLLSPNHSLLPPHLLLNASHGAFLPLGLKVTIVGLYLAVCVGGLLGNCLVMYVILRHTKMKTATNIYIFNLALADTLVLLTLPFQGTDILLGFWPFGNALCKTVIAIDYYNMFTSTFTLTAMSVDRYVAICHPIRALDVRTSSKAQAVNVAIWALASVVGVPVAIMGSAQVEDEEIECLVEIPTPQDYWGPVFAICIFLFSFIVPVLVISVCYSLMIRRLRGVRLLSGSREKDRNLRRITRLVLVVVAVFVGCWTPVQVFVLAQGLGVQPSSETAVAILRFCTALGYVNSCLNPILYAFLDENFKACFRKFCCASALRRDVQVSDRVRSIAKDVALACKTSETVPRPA
Method in brief: as §1

Mouse urotensin (mUR2) = target: T11, Mouse urotensin (mUR2) (Mus musculus, UniProt Q8VIH9); assay: Radioligand binding, mouse urotensin mUR2 membranes, FlashPlate, [125I]-Urotensin II; details: compound at 10 μM; for A11 radioligand binding inhibition: mouse urotensin mUR2 membranes
T11 construct: purchased Perkin Elmer Biosignal
T11 sequence (Q8VIH9 1-385): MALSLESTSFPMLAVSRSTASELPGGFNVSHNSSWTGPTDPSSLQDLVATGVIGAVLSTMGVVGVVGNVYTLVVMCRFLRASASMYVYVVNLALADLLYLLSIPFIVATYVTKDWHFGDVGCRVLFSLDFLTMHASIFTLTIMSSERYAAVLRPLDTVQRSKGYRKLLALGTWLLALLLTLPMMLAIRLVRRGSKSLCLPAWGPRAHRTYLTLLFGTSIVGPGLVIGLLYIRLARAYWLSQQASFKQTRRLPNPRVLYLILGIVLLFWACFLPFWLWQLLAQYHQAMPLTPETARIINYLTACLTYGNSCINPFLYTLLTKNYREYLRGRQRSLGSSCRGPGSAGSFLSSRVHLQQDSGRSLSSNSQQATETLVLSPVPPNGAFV
Method in brief: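 Cloned mouse urotensin (mUR2) receptor membranes from Perkin Elmer Biosignal were immobilized in FlashPlate microplates using a proprietary coating. Each well got 19.5 μl buffer, then 0.5 μl of DMSO, reference ligand, or compound. Adding 5 μl of [125I]-Urotensin II, diluted to 5× final concentration in binding buffer, started binding. Plates were sealed with TopSeal-A and incubated 1 hour at room temperature in the dark. Wells were counted for 30 seconds each on a TopCount after a 60-second delay, and percentage inhibition was calculated.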

T1 sequence (P41143 whole entry): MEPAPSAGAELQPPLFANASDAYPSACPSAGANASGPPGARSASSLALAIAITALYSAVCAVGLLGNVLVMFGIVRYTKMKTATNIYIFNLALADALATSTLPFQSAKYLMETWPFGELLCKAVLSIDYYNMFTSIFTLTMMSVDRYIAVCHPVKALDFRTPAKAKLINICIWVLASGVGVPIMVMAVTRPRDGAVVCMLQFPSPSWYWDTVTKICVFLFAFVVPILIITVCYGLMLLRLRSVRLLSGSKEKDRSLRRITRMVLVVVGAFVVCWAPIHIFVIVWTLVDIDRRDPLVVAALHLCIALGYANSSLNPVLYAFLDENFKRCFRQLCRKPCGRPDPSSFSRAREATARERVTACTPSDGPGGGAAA

Structure (SMILES)	A1 radioligand binding inhibition (Human δ-opioid (DOP))	A2 radioligand binding inhibition (Human κ-Opioid (KOP))	A3 radioligand binding inhibition (Human Melanocortin (MC3))	A4 radioligand binding inhibition (Human Melanocortin (MC4))	A5 radioligand binding inhibition (Human melanocortin (MC5))	A6 radioligand binding inhibition [1]	A7 radioligand binding inhibition (Human μ-opioid (MOP))	A8 radioligand binding inhibition (Human neurokinin (NK1))	A9 radioligand binding inhibition [2]	A10 radioligand binding inhibition (Human opioid (ORL1))	A11 radioligand binding inhibition (Mouse urotensin (mUR2))	also measured
COC[C@H]1OC(OCc2ccc(-c3ccccc3)cc2)[C@H](NC(=O)CNC(=N)N)[C@@H](OCc2ccc3ccccc3c2)[C@@H]1O (stereo partly drawn) [compound 3]	− (“−” indicates less than 50% inhibition at 10 μM)	− (“−” indicates less than 50% inhibition at 10 μM)	− (“−” indicates less than 50% inhibition at 10 μM)	− (“−” indicates less than 50% inhibition at 10 μM)	+ (“+” indicates greater than 50% inhibition at 10 μM)	+ (“+” indicates greater than 50% inhibition at 10 μM)	− (“−” indicates less than 50% inhibition at 10 μM)	+ (“+” indicates greater than 50% inhibition at 10 μM)	− (“−” indicates less than 50% inhibition at 10 μM)	− (“−” indicates less than 50% inhibition at 10 μM)	− (“−” indicates less than 50% inhibition at 10 μM)	
CO[C@H]1[C@H](O)[C@@H](COCc2ccc(-c3ccccc3)cc2)OC(OCc2ccc(-c3ccccc3)cc2)[C@@H]1NC(=O)CNC(=N)N (stereo partly drawn) [compound 51]	− (“−” indicates less than 50% inhibition at 10 μM)	− (“−” indicates less than 50% inhibition at 10 μM)	+ (“+” indicates greater than 50% inhibition at 10 μM)	+ (“+” indicates greater than 50% inhibition at 10 μM)	+ (“+” indicates greater than 50% inhibition at 10 μM)	+ (“+” indicates greater than 50% inhibition at 10 μM)	− (“−” indicates less than 50% inhibition at 10 μM)	+ (“+” indicates greater than 50% inhibition at 10 μM)	− (“−” indicates less than 50% inhibition at 10 μM)	+ (“+” indicates greater than 50% inhibition at 10 μM)	− (“−” indicates less than 50% inhibition at 10 μM)	
N=C(N)NCC(=O)NC1C(OCc2ccc(-c3ccccc3)cc2)OC(COCc2ccc3ccccc3c2)C(O)C1OCc1ccc(-c2ccccc2)cc1 (stereo not drawn) [compound 405]												A1: inhibition of radioligand binding (Human δ-opioid (DOP); [3H]-Bremazocine, human DOP membranes): − (“−” indicates less than 50% inhibition at 10 μM); A2: inhibition of radioligand binding (Human κ-Opioid (KOP); [3H]-Diprenorphine, human KOP membranes): − (“−” indicates less than 50% inhibition at 10 μM); A3: inhibition of radioligand binding (Human Melanocortin (MC3); [125I]-NDP-αMSH, human MC3 membranes): + (“+” indicates greater than 50% inhibition at 10 μM); A4: inhibition of radioligand binding (Human Melanocortin (MC4); [125I]-NDP-αMSH, human MC4 membranes): − (“−” indicates less than 50% inhibition at 10 μM); A5: inhibition of radioligand binding (Human melanocortin (MC5); [125I]-NDP-αMSH, human MC5 membranes): + (“+” indicates greater than 50% inhibition at 10 μM); A6: inhibition of radioligand binding ([1]; [125I]-S36057, human MCH1 membranes): − (“−” indicates less than 50% inhibition at 10 μM); A7: inhibition of radioligand binding (Human μ-opioid (MOP); [3H]-Naloxone, human MOP membranes): − (“−” indicates less than 50% inhibition at 10 μM); A8: inhibition of radioligand binding (Human neurokinin (NK1); [125I]-Substance P, human NK1 membranes): + (“+” indicates greater than 50% inhibition at 10 μM); A9: inhibition of radioligand binding ([2]; [125I]-PYY): − (“−” indicates less than 50% inhibition at 10 μM); A10: inhibition of radioligand binding (Human opioid (ORL1); [125I]-Nociceptin): − (“−” indicates less than 50% inhibition at 10 μM); A11: inhibition of radioligand binding (Mouse urotensin (mUR2); [125I]-Urotensin II, mouse mUR2 membranes): − (“−” indicates less than 50% inhibition at 10 μM)
